Test results from patent US20230355749A1, “Immunomodulatory Compounds And Use Thereof For The Treatment And/Or Prevention Of Infectious Diseases” (AC […], priority 2020, published 2023).
Structures can show the parent of a compound that is named as a salt.

Columns and labels:
[1] = test system: Bone-marrow derived dendritic cells (BMDC); assay: Co-stimulatory marker and MHC surface expression by FACS in BMDC stimulated with LPS and OVA257-264 peptide; type: cell-based, C57BL/6 mice; details: pre-treated 1 hour, then LPS 100 ng/ml + OVA257-264 peptide 10 μM for 24 hours; live CD11c+ population
Description: (§1) Cells were analysed for expression of co-stimulatory markers and MHC complexes at the cell surface by FACS, gated on the live CD11c+ population. Panel A) Median fluorescence intensity ([…]) of CD40, CD80 and CD86 expression. Panel B) Overall expression of MHC-II, given by the expression of I-Ab. Panel C) Relative surface expression of MHC-I (H2-Kb): OVA257-264 peptide complexes over the total surface expression of H2-Kb. Panel D) Quantification of cytokine secretion by ELISA. Data is expressed as the mean+/−standard error of the mean (SEM). Statistical significance was determined by a student's t-test with *p≤0.05.
(§2) LPS (100 ng/ml) was used in this instance as a model Toll-like Receptor ligand for a pathogen and a surrogate for the licensed TLR-specific adjuvant-MPLA.

[2] = test system: Bone-marrow derived dendritic cells (BMDC); assay: Cytokine secretion by ELISA in BMDC stimulated with LPS and OVA257-264 peptide; type: cell-based, C57BL/6 mice; details: LPS 100 ng/ml + OVA257-264 peptide 10 μM, after 24 hours
Description: as §1, §2

LPS-matured BMDC = details: DC matured with 100 ng/ml LPS 36 h; pretreated 1 hour, Eα55-68 pulse 3 hours, analyzed after 24 hours; live CD11c+MHC-II(I-Ab) high; vehicle 1553.33±54.93, p=0.03
From the text: Specifically, these complexes were recognized using fluorochrome-labelled monoclonal antibodies of Y-Ae for I-Ab: Eα55-68 complexes and 25-D1.16 for H2-Kb: OVA257-264 complexes. In all experiments, BMDC were differentiated in vitro from bone marrow precursor cells of C57BL/6 mice using GM-CSF and IL-4 at 250 and 5 UI/ml, respectively.

[3] = test system: immature DC (CD11c+MHC-II int); assay: Endocytosis (uptake) of OVA-AF647 protein by immature DC; type: cell-based, C57BL/6 mice; details: pretreated 3 hours (ACB1801s 20 μM), OVA-AF647 2 μg/ml; for percentage of OVA-AF647+ cells: 3 mice, vehicle 71.00+/−0.058; for Median Fluorescence Intensity of OVA-AF647 within the positive population (amount of protein taken up): vehicle 5533.33+/−60.26, P≤0.0001

SMILES | expression of CD80/CD86 co-stimulatory markers [1] | overall expression of surface MHC-II (I-Ab) [1] | levels of pro-inflammatory cytokines (IL-6, and TNF) [2] | Median Fluorescence Intensity (MFI) of I-Ab: Eα55-68 specific complexes (LPS-matured BMDC) | percentage of OVA-AF647+ cells [3] | Median Fluorescence Intensity of OVA-AF647 within the positive population (amount of protein taken up) [3]
COc1ccc2c(c1)[nH]c1c(C)nccc12.Cl [ACB1801s, harmine HCl] | increased | increased | reduced | 1742.33±15.62 | 72.37+/−0.94 | 6725.67+/−41.450
Cc1[nH]ccc2c1[nH]c1cc(=O)ccc12 [ACB1804s, harmol HCl] |  |  |  |  | 73.867+/−0.751 | 6628+/−98.475
